Data published in patent publication US11447525B2 (NIIGATA UNIVERSITY, priority 2018, dated 2022).
Entries after “also recorded” stand apart in the source; their conditions may differ. Non-standard residues stand in square brackets, D forms with d. Residues, ends and D or L forms follow the SMILES beside them. No end group written: not given here. *: point of attachment. 5FAM = O=C1OC2(c3ccc(O)cc3Oc3cc(O)ccc32)c2ccc(C(=O)*)cc21; NMeR = CN[C@@H](CCCNC(=N)N)C(=O)O

Tests used:
[1] = human blood plasma having a concentration of 50% by mass; details: up to 120 minutes
[2] = tested on: pancreatic cancer cells (BxPC3, PK-8, AsPC1); experiment: Accumulation of FLC-labeled peptides in cells (Test Example 8); type: cell-based, human; details: 2 μM, 37° C., 2 hours
Procedure: Tests were conducted to confirm the accumulation of various peptides into each of the cells shown below in Table 13. Further, the peptides shown below in Table 14 were used.
Each peptide was added to each of the cells shown in Table 13 in an amount sufficient to achieve a final concentration in the medium of 2 μM, and following cultivation of the cells at 37° C. for 2 hours, the sample was washed 3 times with a medium containing no peptide to remove any peptide within the medium. Subsequently, the incorporation of each of the peptides into each of the cells was evaluated visually using an inverted fluorescence microscope. Prior to the microscopic examination, the culture supernatant to which the peptide had been added was removed, and following washing three times with 1×PBS (−), a trypsin treatment was conducted to remove the adherent cells, and the resultant was immediately transferred into a new 96-well plate and once again suspended in fresh culture solution before the microscopic examination was performed. In FIG. 23, “pep(−)” indicates the control cells to which no peptide was administered, and “single PCPP11” indicates cells to which FLC (fluorescein)-PCPP11 had been added. Further, “mal” indicates a maleimide group, with the peptide and the FLC bonded together by forming a covalent bond between the thiol group (—SH) of a cysteine residue and a maleimide group introduced into the FLC.

[3] = tested on: human pancreatic cancer growth and progression mouse model (subcutaneous and intraperitoneal human pancreatic cancer cell-transplanted); experiment: Selective absorption into tissues of human pancreatic cancer growth and progression mouse model, fluorescence signal (Test Examples 3, 4, Reference Example 2); type: in vivo, Balb/c nu/nu mouse; details: 200 μg intravenously, 30 minutes after injection
Procedure: Subsequently, 200 μg of each of the fluorescent labeled peptides prepared above in “1.” was injected intravenously into a human pancreatic cancer growth and progression mouse model (Balb/c nu/nu mouse, subcutaneous and intraperitoneal human pancreatic cancer cell-transplanted model). The pharmacokinetics of the peptide 30 minutes after the intravenous injection were then analyzed by tissue analysis of the freshly dissected specimen of the administered mouse, with the absorption quantified by detection of the fluorescence signal. […] In FIG. 9A, “sc tumor” is an abbreviation for “subcutaneous tumor”. In FIG. 9B, “abd tumor” is an abbreviation for “abdominal tumor”, indicating a tumor formed intraperitoneally. Further, “br” indicates the brain, “hr” indicates the heart, “kd” indicates the kidney, and “liv” indicates the liver. Furthermore, “liv. meta” is an abbreviation for “liver metastatic tumor”, and describes a tumor that has metastasized to the liver. Moreover, “panc” indicates the pancreas, and “sp” indicates the spleen. These same abbreviations are also used in subsequent figures. Furthermore, the term “untreated” in FIG. 9A indicates tissues resected from a mouse that was not administered with any fluorescent labeled peptide.
Specifically, first, either 27 μg or 200 μg of fluorescein was injected intravenously into a human pancreatic cancer growth and progression mouse model (Balb/c nu/nu mouse, subcutaneous and intraperitoneal human pancreatic cancer cell-transplanted model). The pharmacokinetics of the FLC 30 minutes after the intravenous injection were then analyzed by tissue analysis of the freshly dissected specimen of the administered mouse, with the absorption quantified by detection of the fluorescence signal.

[4] = Degradation test by human blood plasma, MALDI-TOFMS analysis; type: in vitro ADME; details: 50% by mass human blood plasma; for degradation products observed: within 120 minutes of starting the test
Procedure: Specifically, a peptide composed of the amino acid sequence represented by SEQ ID NO: 1 (hereafter sometimes referred to as “PCPP11”) was added to human blood plasma having a concentration of 50% by mass, the mixture was sampled immediately after starting the degradation test (after 0 minutes), and then after 5 minutes, after 10 minutes, after 20 minutes, after 30 minutes, after 60 minutes and after 120 minutes, and the samples were analyzed by MALDI-TOFMS (Matrix Assisted Laser Desorption/Ionization-Time Of Flight Mass Spectrometry). In Table 2, “UK” is an abbreviation for “unknown”. Further, the No. shown for each peptide in Table 2 corresponds with the numerical value recorded on the peaks of the graphs shown in FIG. 1.
Each of the peptides described above was added to human blood plasma having a concentration of 50% by mass, the resulting mixture was sampled immediately after starting the degradation test (after 0 minutes), and then after 5 minutes, after 10 minutes, after 20 minutes, after 30 minutes, after 60 minutes and after 120 minutes, and the samples were analyzed by MALDI-TOFMS. The results are shown in FIGS. 2 to 6 and Tables 4 to 6 shown below. Furthermore, the data for the degradation test by human blood plasma using PCPP11 from Reference Example 1 and the degradation tests by human blood plasma using each of the above peptides are collated in FIG. 7 and Table 7. The SEQ ID NO listed for the FAM-labeled peptide represents the SEQ ID NO of the peptide portion. Further, the No. shown for each peptide in Tables 4 to 6 corresponds with the numerical value recorded on the peaks of the graphs shown in FIGS. 2 to 6. In each table, in those cases where the numerical values are shown separated into an upper row and a lower row, the upper row value indicates the proportion (%) of peak area for two or more peptides relative to the total peak area in the MALDI-TOFMS analysis. On the other hand, the lower row value indicates the proportion (%) of each peptide when the peak area for the two or more peptides is deemed to be 100%. Moreover, for example, for the peptide No. 9 shown in Table 4, the left-side “70.0%” indicates the proportion (%) of the peptide No. 9 when the total peak area for the peptides No. 9 to 11 is deemed to be 100%, whereas the right-side “65%” indicates the proportion (%) of the peptide No. 9 relative to the total peak area in the MALDI-TOFMS analysis. This system is also used in the following tables.

With “RRPTTWHKP-G-pkhwttprr (H-RRPTTWHKPG[dP][dK][dH][dW][dT][dT][dP][dR][dR]-OH; N-terminus and C-terminus assumed; SMILES C[C@H](O)[C@@H](NC(=O)[C@@H](Cc1c[nH]c2ccccc12)NC(=O)[C@@H](Cc1c[nH]cn1)NC(=O)[C@@H](CCCCN)NC(=O)[C@H]1CCCN1C(=O)CNC(=O)[C@@H]1CCCN1C(=O)[C@H](CCCCN)NC(=O)[C@H](Cc1c[nH]cn1)NC(=O)[C@H](Cc1c[nH]c2ccccc12)NC(=O)[C@@H](NC(=O)[C@@H](NC(=O)[C@@H]1CCCN1C(=O)[C@H](CCCNC(=N)N)NC(=O)[C@@H](N)CCCNC(=N)N)[C@@H](C)O)[C@@H](C)O)C(=O)N[C@@H](C(=O)N1CCC[C@@H]1C(=O)N[C@H](CCCNC(=N)N)C(=O)N[C@H](CCCNC(=N)N)C(=O)O)[C@H](C)O)” as the compound, how does the fragment found [1] read?
Its fragment found is “RPTTWHKP-G-pkhwttprr, Start; also recorded: TTWHKP-G-pkhwttprr, Start”.

With “RPTTWHKP-G-RRPTTWHKP-C(-[FLC])-RRPTTWHKP (RPTTWHKPGRRPTTWHKPC(fluorescein)RRPTTWHKP) [L(-R)L-Cys(-FLC)-L]” as the compound, how does the “fluorescence compared with FLC-PCPP11” value [2] read?
Its value is “stronger fluorescence”.

And the “fluorescence detected in all of the pancreatic cancer cells” value (from here on “fluorescence detected in all”) [2]?
The value was “particularly strong fluorescence”.

Which “fluorescence compared with FLC-PCPP11” value [2] does the source give for “[FLC]-R-mR-PTTWHKP-G-RRPTTWHKP [FLC-NmLL]” here?
Its value is “stronger fluorescence”.

For “RPTTWHKP-G-RRPTTWHKP-K(-[FLC])-RRPTTWHKP (RPTTWHKPGRRPTTWHKPK(fluorescein)RRPTTWHKP) [L(-R)L-Lys(-FLC)-L]”, which “fluorescence compared with FLC-PCPP11” value [2] is on record?
Its value is “stronger fluorescence”.

And the “fluorescence detected in all” value [2]?
Its value is “particularly strong fluorescence”.

Which results are given for “RPTTWHKP-C(-[FLC])-RRPTTWHKP-C(-[FLC])-RRPTTWHKP [L(-R)-Cys(-FLC)-L-Cys(-FLC)-L]”?
fluorescence compared with FLC-PCPP11 [2]: stronger fluorescence; fluorescence detected in all of the pancreatic cancer cells [2]: particularly strong fluorescence

Which results are given for C[C@H](O)[C@@H](NC(=O)[C@@H](Cc1c[nH]c2ccccc12)NC(=O)[C@@H](Cc1c[nH]cn1)NC(=O)[C@@H](CCCCN)NC(=O)[C@H]1CCCN1C(=O)CNC(=O)[C@@H]1CCCN1C(=O)[C@H](CCCCN)NC(=O)[C@H](Cc1c[nH]cn1)NC(=O)[C@H](Cc1c[nH]c2ccccc12)NC(=O)[C@@H](NC(=O)[C@@H](NC(=O)[C@@H]1CCCN1C(=O)[C@H](CCCNC(=N)N)N(C)C(=O)[C@@H](N)CCCNC(=N)N)[C@@H](C)O)[C@@H](C)O)C(=O)N[C@@H](C(=O)N1CCC[C@@H]1C(=O)N[C@H](CCCNC(=N)N)C(=O)N[C@H](CCCNC(=N)N)C(=O)O)[C@H](C)O [No. 19, R-mR-PTTWHKP-G-pkhwttprr] (H-R[NMeR]PTTWHKPG[dP][dK][dH][dW][dT][dT][dP][dR][dR]-OH; N-terminus and C-terminus assumed)?
inhibitory performance on nonspecific absorption into untargeted normal organs [3]: maintained satisfactorily; absorption into pancreatic malignant tumors relative to the Ld peptide ([3]; FIG. 12B): approximately 1.4 fold; degradation resistance compared with the stand-alone PCPP11 and the FAM-PCPP11 [4]: superior degradation resistance; degradation products observed [4]: no degradation products were observed

With C[C@H](O)[C@@H](NC(=O)[C@@H](Cc1c[nH]c2ccccc12)NC(=O)[C@@H](Cc1c[nH]cn1)NC(=O)[C@@H](CCCCN)NC(=O)[C@H]1CCCN1C(=O)CNC(=O)[C@@H]1CCCN1C(=O)[C@H](CCCCN)NC(=O)[C@H](Cc1c[nH]cn1)NC(=O)[C@H](Cc1c[nH]c2ccccc12)NC(=O)[C@@H](NC(=O)[C@@H](NC(=O)[C@@H]1CCCN1C(=O)[C@H](CCCNC(=N)N)N(C)C(=O)[C@@H](N)CCCNC(=N)N)[C@@H](C)O)[C@@H](C)O)C(=O)N[C@@H](C(=O)N1CCC[C@@H]1C(=O)N[C@H](CCCNC(=N)N)C(=O)N[C@H](CCCNC(=N)N)C(=O)O)[C@H](C)O [compound 19] (H-R[NMeR]PTTWHKPG[dP][dK][dH][dW][dT][dT][dP][dR][dR]-OH; N-terminus and C-terminus assumed) as the compound, how does the remaining at 5 min ([4]; 5 min, read-out: degradation resistance (proportion of the peptide retained without degradation)) read?
Its remaining at 5 min is 100%.

What about the remaining at 10 min ([4]; 10 min, read-out: degradation resistance (proportion of the peptide retained without degradation)) of the same compound?
The remaining at 10 min was 100%.

What about the remaining at 20 min ([4]; 20 min, read-out: degradation resistance (proportion of the peptide retained without degradation)) of the same compound?
Its remaining at 20 min is 100%.

And the remaining at 0.5 h ([4]; 30 min, read-out: degradation resistance (proportion of the peptide retained without degradation))?
Its remaining at 0.5 h is 100%.

What about the remaining at 1 h ([4]; 60 min, read-out: degradation resistance (proportion of the peptide retained without degradation)) of the same compound?
The remaining at 1 h was 100%.

And the remaining at 2 h ([4]; 120 min, read-out: degradation resistance (proportion of the peptide retained without degradation))?
Its remaining at 2 h is 100%.

And the “degradation resistance (proportion of the peptide retained without degradation)” value ([4]; Start)?
Its value is 100%.

Which “degradation resistance compared with the stand-alone PCPP11 and the FAM-PCPP11” value [4] does the source give for RRPTTWHKPGRRPTTWHKP [No. 9] here?
Its value is “superior degradation resistance”.

Which “fluorescence compared with FLC-PCPP11” value [2] does the source give for “R-mR-PTTWHKP-C(-[FLC])-RRPTTWHKP-G-RRPTTWHKP [NmL-Cys(-FLC)-LL]” here?
Its value is “stronger fluorescence”.

And the “fluorescence detected in all” value [2]?
Its value is “particularly strong fluorescence”.

For “R-mR-PTTWHKP-C(-[FLC])-RRPTTWHKP [NmL-Cys(-FLC)-L]”, which “fluorescence compared with FLC-PCPP11” value [2] is on record?
Its value is “stronger fluorescence”.

With C[C@@H](O)[C@H](NC(=O)[C@@H](NC(=O)[C@@H]1CCCN1C(=O)[C@H](CCCNC(=N)N)NC(=O)[C@H](CCCNC(=N)N)NC(=O)CNC(=O)[C@@H]1CCCN1C(=O)[C@H](CCCCN)NC(=O)[C@H](Cc1c[nH]cn1)NC(=O)[C@H](Cc1c[nH]c2ccccc12)NC(=O)[C@@H](NC(=O)[C@@H](NC(=O)[C@@H]1CCCN1C(=O)[C@H](CCCNC(=N)N)NC(=O)[C@H](CCCNC(=N)N)NC(=O)CNC(=O)[C@@H]1CCCN1C(=O)[C@H](CCCCN)NC(=O)[C@H](Cc1c[nH]cn1)NC(=O)[C@H](Cc1c[nH]c2ccccc12)NC(=O)[C@@H](NC(=O)[C@@H](NC(=O)[C@@H]1CCCN1C(=O)[C@H](CCCNC(=N)N)NC(=O)[C@H](CCCNC(=N)N)NC(=O)c1ccc2c(c1)C(=O)OC21c2ccc(O)cc2Oc2cc(O)ccc21)[C@@H](C)O)[C@@H](C)O)[C@@H](C)O)[C@@H](C)O)[C@@H](C)O)C(=O)N[C@@H](Cc1c[nH]c2ccccc12)C(=O)N[C@@H](Cc1c[nH]cn1)C(=O)N[C@@H](CCCCN)C(=O)N1CCC[C@H]1C(=O)O [FAM-LLL] (5FAM-RRPTTWHKPGRRPTTWHKPGRRPTTWHKP-OH; C-terminus assumed) as the compound, how does the “inhibitory performance on nonspecific absorption into untargeted normal organs” value [3] read?
The value was “satisfactorily maintained”.

What about the “absorption into pancreatic malignant tumors compared with the conventional PCPP11” value ([3]; FIG. 11) of the same compound?
Its value is “approximately 6 fold”.

With RRPTTWHKPGRRPTTWHKPGRRPTTWHKP [No. 12] as the compound, how does the “degradation resistance compared with the stand-alone PCPP11 and the FAM-PCPP11” value [4] read?
The value was “superior degradation resistance”.

And the degradation products observed [4]?
Its degradation products observed is “no degradation products were observed”.
